In US12343337B2, “Compounds for increasing neural plasticity” (THE REGENTS OF THE UNIVERSITY OF CALIFORNIA, priority 2016, dated 2025):

Tests used:
[1] = system: cultured embryonic rat cortical neurons; test: Neuritogenesis experiments (Sholl analysis) in cortical cultures; type: cell-based; settings: for promoting neuritogenesis: cultured embryonic rat cortical neurons, DIV6, 10 μM (0.1% DMSO) unless noted otherwise, 72 h treatment, FIGS. 1B-1D, 2B-2D
Method: (§1) Primary cortical cultures were prepared using tissue from embryonic day 18 (E18) Sprague Dawley rats. Cells were plated at various densities on poly-D-lysine coated plates depending on the specific experiment (vide infra). Plating media consisted of 10% heat-inactivated FBS (Life Technologies), 1% penicillin-streptomycin (Life Technologies), and 0.5 mM glutamine (Life Technologies) in Neurobasal (Life Technologies). After 15-24 h, the media was removed and exchanged for replacement media containing 1×B27 supplement (Life Technologies), 1% penicillin-streptomycin, 0.5 mM glutamine, 12.5 μM glutamate, and Neurobasal. After 96 h, 50% of the media was removed and replaced with feed media containing 1×B27 supplement, 1% penicillin-streptomycin, and 0.5 mM glutamine. Once per week until the cultures had reached sufficient maturity for experiments, 50% of the culture media was removed and replaced with feed media, with an additional 20% by volume being added to account for evaporation. For experiments using antagonists/inhibitors, cells were pretreated with ANA-12 (10 μM), rapamycin (100 nM), and ketanserin (100 μM) for 10 min prior to the addition of test compounds. The final DMSO concentration of these experiments was 0.2%. The neurons used in each cellular experiment were taken from at least two different treatment wells and the wells were randomized to account for plate effects. All of the cellular experiments were replicated on at least two occasions by two or more experimenters.
All compounds were dissolved in DMSO and diluted 1:1000 with the exception that BDNF was dissolved in water. Cells were treated with the compound at a final concentration of 90 μM (0.1% DMSO) while all other compounds were treated at 10 μM (0.1% DMSO) unless noted otherwise. For in vivo studies, the compound was dissolved in sterile 0.9% saline and administered intraperitoneally at a dose of 10 mg/kg and an injection volume of 10 mL/kg.
After 3 days in vitro (DIV 3), approximately 50,000 cells/well in poly-D-lysine coated 24 well plates were treated. Treatment was accomplished by first diluting DMSO stock solutions of compounds 1:10 in Neurobasal followed by a 1:100 dilution into each well (total dilution=1:1000). After 72 h, cells were fixed by removing 80% of the media and replacing it with a volume of 4% aqueous paraformaldehyde (Alfa Aesar) equal to 50% of the working volume of the well. Then, the cells were allowed to sit for 20 min at room temperature before the fixative was aspirated and each well washed twice with DPBS. Cells were permeabilized using 0.2% Triton X-100 (ThermoFisher) in DPBS for 20 minutes at room temperature without shaking. Plates were blocked with antibody diluting buffer (ADB) containing 2% bovine serum albumin (BSA) in DPBS for 1 h at room temperature. Then, plates were incubated overnight at 4° C. with gentle shaking in ADB and a chicken anti-MAP2 antibody (1:10,000; EnCor, CPCA-MAP2). The next day, plates were washed three times with DPBS and once with 2% ADB in DPBS. Plates were incubated for 1 h at room temperature in ADB containing an anti-chicken IgG secondary antibody conjugated to Alexa Fluor 488 (Life Technologies, 1:500) and washed five times with DPBS. After the final wash, 500 μL of DPBS was added per well and imaged on a Leica inverted epifluorescence microscope at 40× magnification. Images were analyzed using the Simple Neurite Tracer and Sholl analysis plug-ins for ImageJ Fiji (version 1.51N). All images were taken and analyzed by an experimenter blinded to treatment conditions.

[2] = system: cultured embryonic rat cortical neurons; test: Spinogenesis experiments (spine density) in cortical cultures; type: cell-based; settings: cortical cultures treated for 24 h at DIV 18; FIG. 1E and FIG. 2E
Method: as §1, with “The final DMSO concentration of these experiments was 0.2%. The neurons used in each cellular experiment were taken from at least two different treatment wells and the wells were randomized to account for plate effects. All of the cellular experiments were replicated on at least two occasions by two or more experimenters.” left out
Cells were plated at a density of 35,000 cells/well on glass coverslips in 24 well plates. […] Dendritic spines were counted manually by a trained experimenter who was blinded to the treatment conditions.

BDNF = BDNF ELISA assay in cortical neurons; type: cell-based, rat
Method: as §1
Cortical cultures were grown in 6-well plates (600,000 cells per well). At DIV 17-18, all media was removed and replaced with fresh Neurobasal. After 4 h, each well was treated with compound dissolved in DMSO (1:1000) for 24 h. After the treatment period, the media was removed and the cells washed once with ice-cold DPBS. To each well was added 200 μL of Cell Extraction Buffer (Life Technologies) supplemented with cOmplete and PhoSTOP inhibitors, and incubated on ice for 5-10 min. Plates were scrapped and the contents collected. […]

CN(C)CCc1c[nH]c2cc(F)ccc12 [6-fluoro-DMT, 6-fluoro-N,N-dimethyltryptamine]
promoting neuritogenesis [1]: capable of robustly promoting neuritogenesis

COc1ccc2c(CCN(C)C)c[nH]c2c1 [6-methoxy-DMT, 6-methoxy-N,N-dimethyltryptamine]
promoting neuritogenesis [1]: capable of robustly promoting neuritogenesis

CCN(CC)C(=O)N[C@H]1C=C2c3cccc4[nH]cc(c34)C[C@H]2N(C)C1 [lisuride, Lisuride]
dose-response of effects on neurite outgrowth ([1]; cortical cultures, dose response was not clearly observed, FIGS. 3A and 3B): exhibiting activity across 8-orders of magnitude into the femtomolar range | promoting neuritogenesis [1]: capable of robustly promoting neuritogenesis | spinogenesis in cortical cultures [2]: increased spinogenesis | BDNF protein levels in the presence of TrkB antagonist ANA-12 (BDNF; cortical cultures, 24 h treatment, with ANA-12, FIG. 6): negates the increase in BDNF protein levels | protein levels of BDNF protein (BDNF; cortical neurons, after 24 hours treatment, ELISA, FIG. 5): increased the protein levels of BDNF protein | translation of BDNF on co-treatment with sigma antagonist BD1063 (BDNF; cultured cortical neurons co-treated with BD1063, 24 hour treatment, FIG. 7): completely blocked the increased translation of BDNF

CN(C)CCc1c[nH]c2ccc(Cn3cncn3)cc12 [rizatriptan, Rizatriptan]
promoting neuritogenesis [1]: capable of robustly promoting neuritogenesis | spinogenesis in cortical cultures [2]: increased spinogenesis

B1: BDNF: brain-derived neurotrophic factor, recombinant neurotrophin, Sigma-Aldrich (protein, UniProt P23560 19-247, looked up)
Neurotrophic factor BDNF …: APMKEANIRGQGGLAYPGVRTHGTLESVNGPKAGSRGLTSLADTFEHVIEELLDEDQKVRPNEENNKDADLYTSRVMLSSQVPLEPPLLFLLEEYKNYLDAANMSMRVRRHSDPARRGELSVCDSISEWVTAADKKTAVDMSGGTVTVLEKVPVSKGQLKQYFYETKCNPMGYTKEGCRGIDKRHWNSQCRTTQSYVRALTMDSKKRIGWRFIRIDTSCVCTLTIKRGR
dose response of effects on dendritic arbor complexity ([1]; recombinant BDNF 50 ng/mL vs 100-fold dilution, FIG. 4): significantly less potent following a 100-fold dilution
